Laboratory results published in patent publication US6340573B1, “Chromogenic substrates for detecting bacterial hydrolases” (Bio Merieux, priority 1998, dated 2002).

Test system: Alanine-aminopeptidase
Assay: GRAM identification with impregnated bottle brush
Assay type: cell-based, Gram-negative bacteria
Settings: for coloration intensity: semiquantitative scale up to 4
Excerpt: According to a representative example, the GRAM identification process uses a substrate based on aminobenzene or a derivative thereof, such as DiMethyl-paraPhenyleneDiamine (DMpPD). In the example which follows, the substrate consists of Alanine-Dimethyl-paraPhenyleneDiamine (AlaDMpPD).
It functions as follows. Enzymatic hydrolysis causes release of the DMpPD group. Next, the DMPD binds with α-naphthol (or a derivative) by oxidative coupling facilitated by an oxidizing agent, potassium ferricyanide (K3Fe(CN)6). This then causes formation of a violet-gray complex.
Another device has been defined, which is even more specific in Gram identification and which can also be used with blood agars of Columbia type. It consists of:
a medium consisting of a blood agar of Columbia type (with or without AlaDMpPD), and
a reaction mixture which impregnates a bottle brush and which is constituted on the basis of α-naphthol, potassium ferricyanide and AlaDMpPD and then dried.
This reaction mixture contained in the bottle brush was further improved by adding a step of drying the bottle brushes, which facilitates their subsequent manipulation.
The exact composition is as follows:
for the agar, presence or absence of AlaDMpPD at 0.075 gram per liter (g/l), and
α-naphthol from 0.01 to 5 g/l, preferably from 0.1 to 1 g/l, and for example 0.5 g/l,
potassium ferricyanide from 0.01 to 5 g/l, preferably from 0.1 to 1 g/l, and for example 0.5 g/l, and
AlaDMpPD from 0.01 to 5 g/l, preferably from 0.1 to 1 g/l, and for example 0.35 g/l.
The results obtained in terms of sensitivity and specificity are thus the best obtained. In this case, the detection of the reaction is not instantaneous. It takes 15 to 30 seconds (s) to observe the appearance of any coloration, this being the time required for hydrolysis of the substrate by the bacterial aminopeptidase. […]

## Alanine-Dimethyl-paraPhenyleneDiamine [AlaDMpPD]
Gram-negative bacteria except Pseudomonas
  coloration intensity: greater than 2
Gram-positive bacteria or false-positives except S. pyogenes
  coloration intensity: less than 1
Most Gram-positive bacteria or false-positives, apart from S. pyogenes
  detection time: > 10 s
